Legend:
[1] = biological target: T1, ICE (Homo sapiens, UniProt P29466); test: Enzyme assay with fluorescent substrate (Acetyl-Tyr-Val-Ala-Asp-AMC); Ki and second order rate constants kinact; format: biochemical; settings: YVAD-AMC substrate; reversible inhibitors (Table 1)
T1 sequence (P29466 120-297 limits assumed): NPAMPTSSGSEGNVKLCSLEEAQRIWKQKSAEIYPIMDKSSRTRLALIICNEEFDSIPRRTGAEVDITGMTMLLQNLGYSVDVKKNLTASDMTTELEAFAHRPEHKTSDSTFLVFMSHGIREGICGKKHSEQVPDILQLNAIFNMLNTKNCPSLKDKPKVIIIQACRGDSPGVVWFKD
T1 sequence (P29466 317-404 limits assumed): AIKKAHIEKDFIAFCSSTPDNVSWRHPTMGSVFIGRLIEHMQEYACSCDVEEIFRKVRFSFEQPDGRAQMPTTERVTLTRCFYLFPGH
Experimental: 2. Enzyme Assay with Fluorescent Substrate
This assay is run essentially according to Thornberry et al. (Nature 356: 768-774 (1992)), using substrate 17 referenced in that article. The substrate is: Acetyl-Tyr-Val-Ala-Asp-amino-4-methylcoumarin (AMC). The following components are mixed:
The assay is run in a 96 well microtiter plate. Buffer and ICE are added to the wells. The components are left to incubate at 37° C. for 15 minutes in a temperature-controlled wellplate. After the 15 minute incubation, the reaction is started by adding substrate directly to the wells and the reaction is monitored @37° C. for 30 minutes by following the release of the AMC fluorophore using an excitation wavelength for 380 nm and an emission wavelength of 460 nm. A linear fit of the data for each well is performed and a rate is determined in fluorescence units per second.
For determination of enzyme inhibition constants (Ki) or the mode of inhibition (competitive, uncompetitive or noncompetitive), the rate data determined in the enzyme assays at varying inhibitor concentrations are computer-fit to standard enzyme kinetic equations (see I. H. Segel, Enzyme Kinetics, Wiley-Interscience, 1975).
The determination of second order rate constants for irreversible inhibitors was performed by fitting the fluorescence vs time data to the progress equations of Morrison. Morrison, J. F., Mol. Cell. Biophys., 2, pp. 347-368 (1985). Thornberry et al. have published a description of these methods for measurement of rate constants of irreversible inhibitors of ICE. Thornberry, N. A., et al. Biochemistry, 33, pp. 3923-3940 (1994). For compounds where no prior complex formation can be observed kinetically, the second order rate constants (kinact) are derived directly from the slope of the linear plots of kobs vs. [I]. For compounds where prior complex formation to the enzyme can be detected, the hyperbolic plots of kobs vs. [I] are fit to the equation for saturation kinetics to first generate Ki and k′. The second order rate constant kinact is then given by k′/Ki.
(§1) The selectivity of a panel of reversible inhibitors for ICE homologs is depicted in Table 1. ICE enzyme assays were performed according to Wilson et al (supra 1994) using a YVAD-AMC substrate (Thornberry et al, supra 1992). Assay of TX activity was performed using the ICE substrate under identical conditions to ICE. Assay of CPP32 was performed using a DEVD-AMC substrate (Nicholson et al., supra 1995). In general, there is low selectivity between ICE and TX for a wide range of scaffolds. None of the synthetic ICE compounds tested are effective inhibitors of CPP32.
(§2) Second-order rate constants for inactivation of ICE and ICE homologs with selected irreversible inhibitors are presented below (Table 2). The irreversible compounds studied are broad spectrum inhibitors of ICE and its homologs. Some selectivity, however, is observed with the irreversible compounds comparing inhibition of ICE and CPP32.

[2] = biological target: T2, TX (Homo sapiens, UniProt P49662); test: Inhibition of ICE homologs: TX; format: biochemical; settings: ICE substrate, conditions identical to ICE (Table 1)
T2 construct: made in house; host or cells: Spodoptera frugiperda (Sf9) insect cells, recombinant baculovirus (pVL1393/TX)
T2 sequence (P49662 81-270 limits assumed): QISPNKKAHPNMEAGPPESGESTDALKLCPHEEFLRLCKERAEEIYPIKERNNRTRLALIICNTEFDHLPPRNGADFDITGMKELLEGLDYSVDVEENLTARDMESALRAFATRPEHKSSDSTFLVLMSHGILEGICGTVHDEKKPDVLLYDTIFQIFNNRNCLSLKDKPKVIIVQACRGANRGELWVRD
T2 sequence (P49662 290-377 limits assumed): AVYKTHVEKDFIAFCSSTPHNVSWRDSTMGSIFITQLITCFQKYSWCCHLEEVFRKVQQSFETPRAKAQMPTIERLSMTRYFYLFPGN
From the text: Expression of TX in insect cells using a baculovirus expression system. We have subcloned Tx cDNA (Faucheu et al., supra 1995) into a modified pVL1393 transfer vector, co-transfected the resultant plasmid (pVL1393/TX) into insect cells with viral DNA and identified the recombinant baculovirus. After the generation of high titer recombinant virus stock, the medium was examined for TX activity using the visible ICE assay. […] ICE was used as a standard in the assay.
as §1, §2

[3] = biological target: T3, CPP32 (Homo sapiens, UniProt P42574); test: Inhibition of ICE homologs: CPP32 (DEVD-AMC substrate)
T3 sequence (P42574 29-175 limits assumed): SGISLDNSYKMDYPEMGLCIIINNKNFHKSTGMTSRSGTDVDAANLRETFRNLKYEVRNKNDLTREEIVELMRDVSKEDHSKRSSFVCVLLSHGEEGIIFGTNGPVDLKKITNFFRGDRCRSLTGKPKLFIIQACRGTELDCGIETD
T3 sequence (P42574 176-277 limits assumed): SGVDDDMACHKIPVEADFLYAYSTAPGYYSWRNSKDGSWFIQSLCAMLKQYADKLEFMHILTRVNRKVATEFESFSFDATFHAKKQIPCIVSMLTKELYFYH

[4] = Measurement of blood levels of prodrugs of 214e after p.o. dosing in mice; format: in vivo, mouse
Experimental: Measurement of Blood Levels of Prodrugs of 214e
Mice were administered a p.o. dose of compounds 302 and 304a (50 mg/kg) prepared in 0.5% carboxymethylcellulose. Blood samples were collected at 1 and 7 hours after dosing. Serum was extracted by precipitation with an equal volume of acetonitrile containing 2% formic acid followed by centrifugation. The supernatant was analyzed by liquid chromatography-mass spectrometry (ESI-MS) with a detection level of 0.03 to 3 μg/ml.

[5] = system: U937 cells; test: Fas-induced apoptosis in U937 cells; settings: anti-Fas-induced apoptosis, U937 cells, 20 μM
Experimental: Fas-Induced Apoptosis in U937 cells. Compounds were evaluated for their ability to block anti-Fas-induced apopotosis. […] We used this cell line for apoptosis studies. U937 cells were seeded in culture at 1×10^5 cells/ml and grown to ˜5×10^6 cells/ml. For apoptosis experiments, 2×10^6 cells were plated in 24-well tissue culture plates in 1 ml RPMI-1640-10% FBS and stimulated with 100 ng/ml anti-Fas antigen antibody (Medical and Biological Laboratories, Ltd.). After a 24 hr incubation at 37° C., the percentage of apoptotic cells was determined by FACS analysis using ApoTag reagents.

SMILES | Ki [1] [nM] | Ki [2] [nM] | Ki [3] [nM] | blood levels when administered orally ([4]; orally, detection level 0.03 to 3 μg/ml) [ng/mL] | Inhibition of apoptosis [5] | blood levels when administered orally (in words) ([4]; p.o. 50 mg/kg in 0.5% carboxymethylcellulose, blood at 1 and 7 hours)
O=C[C@H](CC(=O)O)NC(=O)[C@@H]1CCCN2C(=O)CC[C@H](NC(=O)c3ccccc3)C(=O)N12 [Compound 214e, [3S(1S,9S)]3-(9-Benzoylamino-6,10-dioxo-1,2,3,4,7,8,9,10-octahydro-6H-pyridazino[1,2-a][1,2]-diazepine-1-carboxamido)-4-oxobutanoic acid] | 7.5 | 7 ± 1.1 | > 1000 | ≤ 100 | no inhibition | 
CC(C)(C)OC(=O)C[C@@H](C=O)NC(=O)[C@@H]1CCCN2C(=O)CC[C@H](NC(=O)c3ccccc3)C(=O)N12 [Compound 302, [3S(1S,9S)3-(9-Benzoylamino-6,10-dioxo-1,2,3,4,7,8,9,10-octahydro-6H-pyriazino-[1,2-a][1,2]diazapine-1-carboxamido)-amino]-4-oxobutanoic acid tert-butyl ester] |  |  |  |  |  | detectable blood levels

From US20120165319A1, “INHIBITORS OF INTERLEUKIN-1 BETA CONVERTING ENZYME” (VERTEX PHARMACEUTICALS INCORPORATED, priority 1995, published 2012)
